The results in this text go back to patent US20240336654A1, “ANTIMICROBIAL PEPTIDOMIMETICS” (SPEXIS AG, priority 2021, published 2024).

Where a SMILES comes first, the peptide text is derived from it. Bridges are numbered along the chain shown (N, C = ends). [ ]: non-standard residue; d: D form. The star is where a group is joined. Val(Nα-amidino) = CC(C)[C@H](NC(=N)N)C(=O)*; Hyp = O=C(O)[C@@H]1C[C@@H](O)CN1; Cit = NC(=O)NCCC[C@H](N)C(=O)O; Pen = CC(C)(S)[C@H](N)C(=O)O; ΔPro = O=C(O)[C@@H]1C=CCN1; dDab = NCC[C@@H](N)C(=O)O; Dab = NCC[C@H](N)C(=O)O

Holding throughout (format): cell-based
The test system of series [1] is human red blood cells (hRBC). The following applies: red cells of human, 1 h, 200 μg/mL. In outline: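 Peptides at 200 μg/mL incubated 1 h at 37 °C with 20% (v/v) washed human RBC, shaking. Hemolysis from supernatant OD540, expressed as percent of 2.5% Triton X-100 lysis, with PBS as 0%.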
The subject of series [2] is Escherichia coli ATCC 25922. The note with it: ATCC 25922. In outline: (§1)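 CLSI broth microdilution, slightly modified: cation-adjusted Mueller-Hinton II broth with about 5×10^5 CFU/mL from a 0.5 McFarland suspension, and two-fold serial peptide dilutions with Polysorbate 80 at 0.002% final. MIC (μg/mL) was the lowest concentration with no visible growth after 18-20 hours at 35° C.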

Series [3] concerns Escherichia coli MCR-1 Af 45. The note with it: MCR-1 Af 45. In a few lines:
as §1

Series [4] has as its system Klebsiella pneumoniae SSI3010. The following applies: SSI3010. In a few lines: as §1

`CC[C@H](C)[C@H](NC(=O)[C@@H]1C[C@@H](O)CN1C(=O)[C@@H](NC(=N)N)C(C)C)C(=O)N[C@@H]1C(=O)N[C@@H](Cc2ccc(O)cc2)C(=O)N[C@@H](CO)C(=O)N[C@@H](CC(N)=O)C(=O)N[C@@H](CCCNC(=N)N)C(=O)N[C@H](CCN)C(=O)N[C@@H]([C@@H](C)O)C(=O)N[C@H](CCN)C(=O)N[C@@H](CO)C(=O)N[C@@H](CCN)C(=O)N[C@@H](CCN)C(=O)N[C@H](C(=O)N[C@@H](Cc2ccc(O)cc2)C(=O)O)CSSC1(C)C` [Example 104, Gua-Val-Hyp-Ile-Pen-Tyr-Ser-Asn-Arg-^DDab-Thr-^DDab-Ser-Dab-Dab-Cys-Tyr] ({Val(Nα-amidino)}-[Hyp]I[Pen]YSNR[dDab]T[dDab]S[Dab][Dab]CY-OH; disulfide 3-14): the “Hemolysis at 0.2 g/L” value in series [1] is recorded as less than 1%. Further, the “Escherichia coli ATCC 25922 MIC” value in series [2] was 0.25 µg/mL. Moreover, the “Escherichia coli MCR-1 Af45 MIC” value in series [3] amounted to 0.25 µg/mL. Moreover, the “Klebsiella pneumoniae SSI3010 MIC” value in series [4] was found to be 0.25 µg/mL.
For `CC[C@H](C)[C@H](NC(=O)[C@@H]1C[C@@H](O)CN1C(=O)[C@@H](NC(=N)N)C(C)C)C(=O)N[C@@H]1C(=O)N[C@@H](Cc2ccc(O)cc2)C(=O)N[C@@H]([C@@H](C)O)C(=O)N[C@@H](CC(N)=O)C(=O)N[C@@H](CCCNC(=N)N)C(=O)N[C@@H](CCN)C(=O)N[C@@H]([C@@H](C)O)C(=O)N[C@H](CCN)C(=O)N[C@@H](CC(N)=O)C(=O)N[C@@H](CCN)C(=O)N[C@@H](CCN)C(=O)N[C@H](C(=O)N[C@@H](Cc2ccc(O)cc2)C(=O)O)CSSC1(C)C` [Example 105, Gua-Val-Hyp-Ile-Pen-Tyr-Thr-Asn-Arg-Dab-Thr-^DDab-Asn-Dab-Dab-Cys-Tyr] ({Val(Nα-amidino)}-[Hyp]I[Pen]YTNR[Dab]T[dDab]N[Dab][Dab]CY-OH; disulfide 3-14), in series [1], the “Hemolysis at 0.2 g/L” value was less than 1%. Also, the “Escherichia coli ATCC 25922 MIC” value in series [2] was determined as 0.125 µg/mL. Further, in series [3], the “Escherichia coli MCR-1 Af45 MIC” value was 0.125 µg/mL. In addition, the “Klebsiella pneumoniae SSI3010 MIC” value in series [4] stood at 0.25 µg/mL.
As to `CC[C@H](C)[C@H](NC(=O)[C@@H]1C[C@@H](O)CN1C(=O)[C@@H](NC(=N)N)C(C)C)C(=O)N[C@@H]1C(=O)N[C@@H](Cc2ccc(O)cc2)C(=O)N[C@@H](CO)C(=O)N[C@@H](CC(N)=O)C(=O)N[C@@H](CCCNC(=N)N)C(=O)N[C@@H](CCN)C(=O)N[C@@H]([C@@H](C)O)C(=O)N[C@H](CCN)C(=O)N[C@@H](CCCNC(N)=O)C(=O)N[C@@H](CCN)C(=O)N[C@@H](CCN)C(=O)N[C@H](C(=O)N[C@@H](Cc2ccc(O)cc2)C(=O)O)CSSC1(C)C` [Example 106, Gua-Val-Hyp-Ile-Pen-Tyr-Ser-Asn-Arg-Dab-Thr-^DDab-Cit-Dab-Dab-Cys-Tyr] ({Val(Nα-amidino)}-[Hyp]I[Pen]YSNR[Dab]T[dDab][Cit][Dab][Dab]CY-OH; disulfide 3-14), the “Hemolysis at 0.2 g/L” value in series [1] is recorded as less than 1%. For the same molecule, the “Escherichia coli ATCC 25922 MIC” value in series [2] amounted to 0.125 µg/mL. Moreover, the “Escherichia coli MCR-1 Af45 MIC” value in series [3] was determined as 0.125 µg/mL. The “Klebsiella pneumoniae SSI3010 MIC” value in series [4] is 0.25 µg/mL.
For the molecule `CC[C@H](C)[C@H](NC(=O)[C@@H]1C[C@@H](O)CN1C(=O)[C@@H](NC(=N)N)C(C)C)C(=O)N[C@@H]1C(=O)N[C@@H](Cc2ccc(O)cc2)C(=O)N[C@@H](CO)C(=O)N[C@@H](CC(N)=O)C(=O)N[C@@H](CCCNC(=N)N)C(=O)N[C@@H](CCN)C(=O)N[C@@H]([C@@H](C)O)C(=O)N[C@H](CCN)C(=O)N[C@@H](CC(N)=O)C(=O)N[C@@H](CCN)C(=O)N[C@@H](CCN)C(=O)N[C@H](C(=O)N[C@@H](Cc2ccc(O)cc2)C(=O)O)CSSC1(C)C` [Example 107, Gua-Val-Hyp-Ile-Pen-Tyr-Ser-Asn-Arg-Dab-Thr-^DDab-Asn-Dab-Dab-Cys-Tyr] ({Val(Nα-amidino)}-[Hyp]I[Pen]YSNR[Dab]T[dDab]N[Dab][Dab]CY-OH; disulfide 3-14), in series [1], the “Hemolysis at 0.2 g/L” value was less than 1%. For the same molecule, the “Escherichia coli ATCC 25922 MIC” value in series [2] came out at 0.125 µg/mL. Besides, the “Escherichia coli MCR-1 Af45 MIC” value in series [3] is 0.125 µg/mL. In series [4], the “Klebsiella pneumoniae SSI3010 MIC” value was found to be 0.25 µg/mL.
Turning to `CC[C@H](C)[C@H](NC(=O)[C@@H]1C[C@@H](O)CN1C(=O)[C@@H](NC(=N)N)C(C)C)C(=O)N[C@@H]1C(=O)N[C@@H](Cc2ccc(O)cc2)C(=O)N[C@@H]([C@@H](C)O)C(=O)N[C@@H](CC(N)=O)C(=O)N[C@@H](CCCNC(=N)N)C(=O)N[C@@H](CCN)C(=O)N[C@@H]([C@@H](C)O)C(=O)N[C@H](CCN)C(=O)N[C@@H](CCCCN)C(=O)N[C@@H](CCN)C(=O)N[C@@H](CO)C(=O)N[C@H](C(=O)N[C@@H](Cc2ccc(O)cc2)C(=O)O)CSSC1(C)C` [Example 108, Gua-Val-Hyp-Ile-Pen-Tyr-Thr-Asn-Arg-Dab-Thr-Dab-Lys-Dab-S-Cys-Tyr] ({Val(Nα-amidino)}-[Hyp]I[Pen]YTNR[Dab]T[dDab]K[Dab]SCY-OH; disulfide 3-14), the “Hemolysis at 0.2 g/L” value in series [1] is less than 1%. For the same molecule, in series [2], the “Escherichia coli ATCC 25922 MIC” value was determined as 0.25 µg/mL. The “Escherichia coli MCR-1 Af45 MIC” value in series [3] came to 0.125 µg/mL. Besides, the “Klebsiella pneumoniae SSI3010 MIC” value in series [4] was determined as 0.25 µg/mL.
Consider `CC[C@H](C)[C@H](NC(=O)[C@@H]1C=CCN1C(=O)[C@@H](NC(=N)N)C(C)C)C(=O)N[C@@H]1C(=O)N[C@@H](Cc2ccc(O)cc2)C(=O)N[C@@H]([C@@H](C)O)C(=O)N[C@@H](CC(N)=O)C(=O)N[C@@H](CCCNC(=N)N)C(=O)N[C@@H](CCN)C(=O)N[C@@H]([C@@H](C)O)C(=O)N[C@H](CCN)C(=O)N[C@@H](CCCCN)C(=O)N[C@@H](CCN)C(=O)N[C@@H](CCN)C(=O)N[C@H](C(=O)N[C@@H](Cc2ccc(O)cc2)C(=O)O)CSSC1(C)C` [Example 109, Gua-Val-Pro(3,4dehydro)-Ile-Pen-Tyr-Thr-Asn-Arg-Dab-Thr-^DDab-Lys-Dab-Dab-Cys-Tyr] ({Val(Nα-amidino)}-[ΔPro]I[Pen]YTNR[Dab]T[dDab]K[Dab][Dab]CY-OH; disulfide 3-14), for which the “Hemolysis at 0.2 g/L” value in series [1] is recorded as less than 1%. In addition, the “Escherichia coli ATCC 25922 MIC” value in series [2] came to 0.0625 µg/mL. In addition, in series [3], the “Escherichia coli MCR-1 Af45 MIC” value came out at 0.03125 µg/mL. For the same molecule, the “Klebsiella pneumoniae SSI3010 MIC” value in series [4] turned out to be 0.125 µg/mL.
The matching figures for `CC[C@H](C)[C@H](NC(=O)[C@@H]1C=CCN1C(=O)[C@@H](NC(=N)N)C(C)C)C(=O)N[C@@H]1C(=O)N[C@@H](Cc2ccc(O)cc2)C(=O)N[C@@H](CO)C(=O)N[C@@H](CC(N)=O)C(=O)N[C@@H](CCCNC(=N)N)C(=O)N[C@@H](CCN)C(=O)N[C@@H]([C@@H](C)O)C(=O)N[C@H](CCN)C(=O)N[C@@H](CCCCN)C(=O)N[C@@H](CCN)C(=O)N[C@@H](CCN)C(=O)N[C@H](C(=O)N[C@@H](Cc2ccc(O)cc2)C(=O)O)CSSC1(C)C` [Example 110, Gua-Val-Pro(3,4dehydro)-Ile-Pen-Tyr-Ser-Asn-Arg-Dab-Thr-^DDab-Lys-Dab-Dab-Cys-Tyr] ({Val(Nα-amidino)}-[ΔPro]I[Pen]YSNR[Dab]T[dDab]K[Dab][Dab]CY-OH; disulfide 3-14): less than 1%, 0.0625 µg/mL, 0.0625 µg/mL and 0.125 µg/mL.
For `CC[C@H](C)[C@H](NC(=O)[C@@H]1C=CCN1C(=O)[C@@H](NC(=N)N)C(C)C)C(=O)N[C@@H]1C(=O)N[C@@H](Cc2ccc(O)cc2)C(=O)N[C@@H]([C@@H](C)O)C(=O)N[C@@H](CC(N)=O)C(=O)N[C@@H](CCCNC(=N)N)C(=O)N[C@@H](CCN)C(=O)N[C@@H]([C@@H](C)O)C(=O)N[C@H](CCN)C(=O)N[C@@H](CO)C(=O)N[C@@H](CCN)C(=O)N[C@@H](CCN)C(=O)N[C@H](C(=O)N[C@@H](Cc2ccc(O)cc2)C(=O)O)CSSC1(C)C` [Example 111, Gua-Val-Pro(3,4dehydro)-Ile-Pen-Tyr-Thr-Asn-Arg-Dab-Thr-^DDab-Ser-Dab-Dab-Cys-Tyr] ({Val(Nα-amidino)}-[ΔPro]I[Pen]YTNR[Dab]T[dDab]S[Dab][Dab]CY-OH; disulfide 3-14), in that order: less than 1%, 0.125 µg/mL, 0.0625 µg/mL and 0.125 µg/mL.
For the molecule `CC[C@H](C)[C@H](NC(=O)[C@@H]1C[C@@H](O)CN1C(=O)[C@@H](NC(=N)N)C(C)C)C(=O)N[C@H]1CCNC(=O)CC[C@@H](C(=O)N[C@@H](Cc2ccc(O)cc2)C(=O)O)NC(=O)[C@H](CCN)NC(=O)[C@H](CCN)NC(=O)[C@H](CO)NC(=O)[C@@H](CCN)NC(=O)[C@H]([C@@H](C)O)NC(=O)[C@H](CCN)NC(=O)[C@H](CCCNC(=N)N)NC(=O)[C@H](CC(N)=O)NC(=O)[C@H]([C@@H](C)O)NC(=O)[C@H](Cc2ccc(O)cc2)NC1=O` [Example 112, Gua-Val-Hyp-Ile-Dab-Tyr-Thr-Asn-Arg-Dab-Thr-^DDab-Ser-Dab-Dab-Glu-Tyr] ({Val(Nα-amidino)}-[Hyp]I[Dab]YTNR[Dab]T[dDab]S[Dab][Dab]EY-OH; lactam 3-14), the “Hemolysis at 0.2 g/L” value in series [1] was less than 1%. For the same molecule, the “Escherichia coli ATCC 25922 MIC” value in series [2] turned out to be 0.125 µg/mL. For the same molecule, the “Escherichia coli MCR-1 Af45 MIC” value in series [3] was determined as 0.125 µg/mL. For the same molecule, the “Klebsiella pneumoniae SSI3010 MIC” value in series [4] was 0.25 µg/mL.
